Values quoted from earlier work as cited in patent US9827315B2, “Compositions of pharmaceutical actives containing diethylene glycol monoethyl ether or other alkyl derivatives” (THEMIS MEDICARE LIMITED, priority 2013, dated 2017).
Values after ≈ are worked out from the molar mass of the structure shown. Structures can show the parent of a compound that is named as a salt.

Details: at 22° C.; cited from earlier work

Row | Compound | solubility (solvent not given)
1 | NC(Cc1ccc(N(CCCl)CCCl)cc1)C(=O)O (stereo not shown) [Melphalan] | < 0.1 g/100 mL

Same assay, conditions: at 25° C.; cited from earlier work

Row | Compound | viscosity of vehicle | solubility in water
2 | CCCCCCCC/C=C\CCCCCCCC(=O)OCC [Ethyl oleate] | 3.9 Cps | –
3 | CC(=O)S[C@@H]1CC2=CC(=O)CC[C@]2(C)[C@H]2CC[C@@]3(C)[C@@H](CC[C@@]34CCC(=O)O4)[C@H]12 [Spironolactone, 17-hydroxy-7α-mercapto-3-oxo-17α-pregn-4-ene-21-carboxylic acid, γ-lactone acetate] | – | about 22 mg/L

Same assay, conditions: at pH 6.5; cited from earlier work

Row | Compound | solubility in water
4 | Brc1c(NC2=NCCN2)ccc2nccnc12 [Brimonidine tartarate] | 34 mg/mL (≈ 116 mM)

Same assay, conditions: at pH 7.0; cited from earlier work

Row | Compound | octanol/water partition coefficient
5 | COC(=O)[C@@H]1CC2=CC(=O)CC[C@]2(C)[C@@]23O[C@@H]2C[C@@]2(C)[C@@H](CC[C@@]24CCC(=O)O4)[C@H]13 [Eplerenone, pregn-4-ene-7,21-dicarboxylic acid, 9,11-epoxy-17-hydroxy-3-oxo, γ-lactone, methyl ester (7α, 11α, 17α)] | approximately 7.1

Same assay, conditions: cited from earlier work

Row | Compound | solubility in DMSO | solubility in water
6 | Cl.N[C@@H]1CCCCN(c2c(F)cc3c(=O)c(C(=O)O)cn(C4CC4)c3c2Cl)C1 [Besifloxacin] | Sparingly soluble in methanol, Sparingly soluble in water (1 mg/mL), DMSO (<1 mg/mL) | Sparingly soluble in methanol, Sparingly soluble in water (1 mg/mL), DMSO (<1 mg/mL)
7 | Cc1ccc(-c2ncc(Cl)cc2-c2ccc(S(C)(=O)=O)cc2)cn1 [Etoricoxib, 5-chloro-6′-methyl-3-[4-(methylsulfonyl)phenyl]-2,3′-bipyridine] | – | about 3.3 mg/L

Same assay, conditions: dissolved in 30 ml water; cited from earlier work

Row | Compound | water solubility
8 | CC[C@H]1OC(=O)[C@H](C)[C@@H](O[C@H]2C[C@@](C)(OC)[C@@H](O)[C@H](C)O2)[C@H](C)[C@@H](O[C@@H]2O[C@H](C)C[C@H](N(C)C)[C@H]2O)[C@](C)(O)C[C@@H](C)/C(=N\OCOCCOC)[C@H](C)[C@@H](O)[C@]1(C)O [Roxithromycin, (3R,4S,5S,6R,7R,9R,11S,12R,13S,14R)-6-[(2S,3R,4S,6R)-4-d-3-hydroxy-6-methyloxan-2-yl]oxy-14-ethyl-7,12,13-trihydroxy-4-[(2R,4R,5S,6S)-5-hydroxy-4-methoxy-4,6-dimethyloxan-2-yl]oxy-10-(2-methoxyethoxymethoxyimino)-3,5,7,9,11,13-hexamethyl-1-oxacyclotetradecan-2-one] | 0.1 g

Same assay, conditions: water; cited from earlier work

Row | Compound | Solubility in water (descriptive)
9 | CCC(C)n1ncn(-c2ccc(N3CCN(c4ccc(OC[C@H]5CO[C@](Cn6cncn6)(c6ccc(Cl)cc6Cl)O5)cc4)CC3)cc2)c1=O (mixture of isomers) [Itraconazole] | Soluble in organic solvents such as DMSO and dimethyl formamide. Insoluble in water.
10 | CCOC(=O)C1=C(COCCN)NC(C)=C(C(=O)OC)C1c1ccccc1Cl (racemic) [Amlodipine besylate, 3-Ethyl-5-methyl(±)-2-[(2-aminoethoxy)methyl]4-(2-chlorophenyl)-1,4-dihydro-6-methyl-3,5-pyridinedicarboxylate, mono benzene sulphonate] | slightly soluble
11 | COC(=O)C1=C(C)NC(C)=C(C(=O)OC2CCN(Cc3ccccc3)C2)[C@H]1c1cccc([N+](=O)[O-])c1.Cl (stereo in doubt) [Barnidipine Hydrochloride, 3-(3R)-1-benzylpyrrolidin-3-yl 5-methyl 2,6-dimethyl-4-(3-nitrophenyl)-1,4-dihydropyridine-3,5-dicarboxylate] | insoluble
12 | O=C(O)COC(=O)Cc1ccccc1Nc1c(Cl)cccc1Cl [Aceclofenac, 2-[2-[2-[(2,6-dichlorophenyl)amino]phenyl]acetyl]oxyacetic acid] | practically insoluble
13 | C=CC[C@]1(O)CC[C@H]2[C@@H]3CCC4=CCCC[C@@H]4[C@H]3CC[C@@]21C [Allyoestrenol, (17β)-17-(prop-2-en-1-yl)estr-4-en-17-ol] | practically insoluble
14 | COC(=O)C1=C(C)NC(C)=C(C(=O)O[C@@H]2CCCN(Cc3ccccc3)C2)C1c1cccc([N+](=O)[O-])c1 (stereo partly drawn) [Benidipine Hydrochloride, O5-methyl O3-[(3R)-1-(phenylmethyl)piperidin-3-yl]2,6-dimethyl-4-(3-nitrophenyl)-1,4-dihydropyridine-3,5-dicarboxylate] | practically insoluble
15 | C=C(c1ccc(C(=O)O)cc1)c1cc2c(cc1C)C(C)(C)CCC2(C)C [Bexarotene] | Insoluble in water and slightly soluble in vegetable oils and ethanol, USP
16 | C[C@H](CS)C(=O)N1CCC[C@H]1C(=O)O [Captopril, (2S)-1-[(2S)-2-methyl-3-sulfanylpropanoyl]pyrrolidine-2-carboxylic acid] | easily soluble
17 | CCCC(=O)OCOC(=O)C1=C(C)NC(C)=C(C(=O)OC)[C@H]1c1cccc(Cl)c1Cl [Clevidipine, O3-(butanoyloxymethyl) O5-methyl (4R)-4-(2,3-dichlorophenyl)-2,6-dimethyl-1,4-dihydropyridine-3,5dicarboxylate] | practically insoluble
18 | Cc1c(OCC(F)(F)F)ccnc1C[S@@+]([O-])c1nc2ccccc2[nH]1 [Dexlansoprazole, (R)-(+)2-([3-methyl-4-(2,2,2-trifluoroethoxy)pyridin-2-yl]methylsulfinyl)-1H-benzo[d]imidazole] | very slightly soluble
19 | CCN(CC)CCOC(=O)C1(C2CCCCC2)CCCCC1 [Dicyclomine Hydrocloride, Dicyclomine] | soluble
20 | CCCC(=O)O[C@]1(C(=O)COC(C)=O)CC[C@H]2[C@@H]3C[C@H](F)C4=CC(=O)C=C[C@]4(C)[C@@]3(F)[C@@H](O)C[C@@]21C [Difluprednate] | Very low solubility in water
21 | COC(=O)[C@@H]1CC2=CC(=O)CC[C@]2(C)[C@@]23O[C@@H]2C[C@@]2(C)[C@@H](CC[C@@]24CCC(=O)O4)[C@H]13 [Eplerenone, pregn-4-ene-7,21-dicarboxylic acid, 9,11-epoxy-17-hydroxy-3-oxo, γ-lactone, methyl ester (7α, 11α, 17α)] | very slightly soluble
22 | C#C[C@]1(O)CC[C@H]2[C@@H]3CCc4cc(O)ccc4[C@H]3CC[C@@]21C [Ethinyl estradiol, 19-nor-17α-pregna-1,3,5(10)-trien-20-yne-3,17-diol] | practically insoluble
23 | O=C1[C@H](CC[C@H](O)c2ccc(F)cc2)[C@@H](c2ccc(O)cc2)N1c1ccc(F)cc1 [Ezetimibe] | Freely to very soluble in ethanol, methanol, and acetone and practically insoluble in water.
24 | OC(Cn1cncn1)(Cn1cncn1)c1ccc(F)cc1F [Fluconazole, 2-(2,4-difluorophenyl)-1,3-bis(1H-1,2,4-triazol-1-yl)propan-2-ol] | very slightly soluble
25 | CC(=O)O[C@]1(C(C)=O)CC[C@H]2C3C[C@H](C)C4=CC(=O)C=CC4(C)[C@@]3(F)[C@@H](O)CC21C (stereo partly shown) [Flurometholone Acetate] | Freely soluble in chloroform and acetone, soluble in ethanol, very slightly soluble in water
26 | CCC(=O)O[C@]1(C(=O)SCF)[C@H](C)C[C@H]2[C@@H]3C[C@H](F)C4=CC(=O)C=C[C@]4(C)[C@@]3(F)[C@@H](O)C[C@@]21C [Fluticasone Propionate] | It is practically insoluble in water, freely soluble in dimethyl sulfoxide and dimethylformamide, and slightly soluble in methanol and 95% ethanol. Solubility in Diethylene glycol monoethyl ether is 14.7 mg/ml.
27 | CN1C(C(=O)Nc2ccccn2)=C(O)c2sc(Cl)cc2S1(=O)=O [Lornoxicam, (3E)-6-chloro-3-[hydroxy(pyridin-2-ylamino)methylene]-2-methyl-2,3-dihydro-4H-thieno[2,3-e][1,2]thiazin-4-one 1,1-dioxide] | hardly soluble
28 | CC(=O)O[C@]1(C(C)=O)CC[C@H]2[C@@H]3C[C@H](C)C4=CC(=O)CC[C@]4(C)[C@H]3CC[C@@]21C [MPA, 17α-hydroxy-6α-methylpregn-4-ene-3,20-dione acetate] | insoluble
29 | COc1ccccc1OCC(O)COC(N)=O (stereo not shown) [Methocarbamol, 3-(2-methoxyphenoxy)-1,2-propanediol 1-carbamate] | sparingly soluble
30 | CCCCCCCCCC(=O)O[C@H]1CC[C@H]2[C@@H]3CCC4=CC(=O)CC[C@@H]4[C@H]3CC[C@]12C [Nandrolone Decoanate, Estr-4-en-3-one,17-[(1-oxodecyl)oxy]-,(17b)-] | practically insoluble
31 | COCCOC(=O)C1=C(C)NC(C)=C(C(=O)OC(C)C)C1c1cccc([N+](=O)[O-])c1 (stereo not shown) [Nimodipine] | Soluble in methanol. Insoluble in water in beta cyclodextrin
32 | C#C[C@]1(OC(=O)CCCCCC)CC[C@H]2[C@@H]3CCC4=CC(=O)CC[C@@H]4[C@H]3CC[C@@]21C [Norethisterone enantate, 17alpha-Ethynyl-19-nortestosterone 17-heptanoate] | practically insoluble
33 | CC1=C(C/C=C(\C)CCC[C@H](C)CCC[C@H](C)CCCC(C)C)C(=O)c2ccccc2C1=O [Phytomenadione, 2-methyl-3-phytyl-1,4-naphthoquinone] | insoluble
34 | CC(=O)OCC(=O)[C@@]1(O)CC[C@H]2[C@@H]3CCC4=CC(=O)C=C[C@]4(C)[C@H]3[C@@H](O)C[C@@]21C [Prednisolone acetate, 11β,17,21-Trihydroxypregna-1,4-diene-3,20-dione 21-acetate] | practically insoluble
35 | CC[C@H]1OC(=O)[C@H](C)[C@@H](O[C@H]2C[C@@](C)(OC)[C@@H](O)[C@H](C)O2)[C@H](C)[C@@H](O[C@@H]2O[C@H](C)C[C@H](N(C)C)[C@H]2O)[C@](C)(O)C[C@@H](C)/C(=N\OCOCCOC)[C@H](C)[C@@H](O)[C@]1(C)O [Roxithromycin, (3R,4S,5S,6R,7R,9R,11S,12R,13S,14R)-6-[(2S,3R,4S,6R)-4-d-3-hydroxy-6-methyloxan-2-yl]oxy-14-ethyl-7,12,13-trihydroxy-4-[(2R,4R,5S,6S)-5-hydroxy-4-methoxy-4,6-dimethyloxan-2-yl]oxy-10-(2-methoxyethoxymethoxyimino)-3,5,7,9,11,13-hexamethyl-1-oxacyclotetradecan-2-one] | almost insoluble
36 | C[C@]12Cc3c[nH]nc3C[C@@H]1CC[C@@H]1[C@@H]2CC[C@@]2(C)[C@H]1CC[C@]2(C)O [Stanozolol] | practically insoluble
37 | CN1CC(=O)N2[C@H](c3ccc4c(c3)OCO4)c3[nH]c4ccccc4c3C[C@@H]2C1=O [Tadalafil] | Insoluble in water and very slightly soluble in ethanol
38 | CC1=C(/C=C/C(C)=C/C=C/C(C)=C/C(=O)O)C(C)(C)CCC1 [Tretinoin] | Insoluble in water

Same assay, conditions: with slight warming; cited from earlier work

Row | Compound | solubility in water
39 | COc1cccc2c1C(=O)c1c(O)c3c(c(O)c1C2=O)C[C@@](O)(C(=O)CO)C[C@@H]3O[C@H]1C[C@H](N)[C@H](O)[C@H](C)O1 [Doxorubicin] | 10 mg/mL (≈ 18.4 mM)
